Test results: the supplement of paper PMC5908809

Tests used:
Assay in all cases: relative IC50 (inflection point of fitted viability curve, relative to fitted max inhibition); higher = less sensitive
Settings in all cases: 72 h
[1] = tested on: DERL-7 (IL-2 2.5 ng/mL)
Method: (§1)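 Drug sensitivity and resistance testing: 5 concentrations over a 10,000-fold range, 72 h at 37 °C, viability by CellTiter-Glo normalised to DMSO and benzethonium chloride controls. IC50 is the inflection point of a logistic fit (min fixed at 0, max fitted), so it is relative to the fitted maximal inhibition. Kept only where fitted max inhibition is at least 50%.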

[2] = tested on: KHYG-1 (IL-2 2.5 ng/mL)
Method: as §1

[3] = tested on: NK-92 (IL-2 2.5 ng/mL)
Method: as §1

[4] = tested on: KAI3 (IL-2 2.5 ng/mL)
Method: as §1

[5] = tested on: NKL (IL-2 2.5 ng/mL)
Method: as §1

[6] = tested on: NK-YS (IL-2 2.5 ng/mL)
Method: as §1

[7] = tested on: IMC-1 (IL-2 20 ng/mL)
Method: as §1

[8] = tested on: SNK-6 (IL-2 2.5 ng/mL)
Method: as §1

[9] = tested on: normal primary NK cells, pool 1 (3 donors), resting (IL-2 0 ng/mL)
Method: as §1

[10] = tested on: normal primary NK cells, pool 2 (3 donors) (IL-2 2.5 ng/mL)
Method: as §1

[11] = tested on: YT (IL-2 2.5 ng/mL)
Method: as §1

[12] = tested on: normal primary NK cells, pool 1 (3 donors) (IL-2 2.5 ng/mL)
Method: as §1

[13] = tested on: normal primary NK cells, pool 3 (3 donors) (IL-2 2.5 ng/mL)
Method: as §1

Row | SMILES | relative IC50 [1] | relative IC50 [2] | relative IC50 [3] | relative IC50 [4] | relative IC50 [5] | relative IC50 [6] | relative IC50 [7] | relative IC50 [8] | relative IC50 [9] | relative IC50 [10] | relative IC50 [11] | relative IC50 [12] | relative IC50 [13]
1 | CCn1c(C(=O)N(C2CC2)C2CC2)cc2c3c(ncn3C)c(Nc3cc(C)n(C)n3)nc21 | 1630 nM | 1820 nM | 1980 nM | 180 nM | 797 nM | – | – | – | – | – | – | – | –
2 | O=C(O)c1ccc(-c2c[nH]c3ncc(-c4ccccc4)cc23)cc1C1CCCC1 | 2820 nM | 1490 nM | 2330 nM | 307 nM | 1400 nM | 1460 nM | 3040 nM | – | – | – | – | – | –
3 | CC/C(=C(\c1ccc(O)cc1)c1ccc(OCCN(C)C)cc1)c1ccccc1 [4-hydroxytamoxifen] | 1690 nM | 1290 nM | 2850 nM | 2640 nM | 2700 nM | 2250 nM | 2130 nM | 3890 nM | 3750 nM | 2700 nM | 2330 nM | 3340 nM | –
4 | Cc1csc(-c2nnc(Nc3ccc(Oc4ncccc4-c4ccnc(N)n4)cc3)c3ccccc23)c1 [AMG-900] | 11.1 nM | 11.3 nM | 58.5 nM | – | > 1000 nM | 5.4 nM | 123 nM | 2.8 nM | – | > 1000 nM | – | > 1000 nM | –
5 | CC[C@H](CC#N)OC(=O)N[C@@H](C)c1cccc(NC(=O)Nc2ccc(-c3cnco3)c(OC)c2)c1 [AVN944] | 104 nM | 103 nM | 166 nM | 117 nM | 117 nM | 103 nM | 622 nM | 67.7 nM | 2170 nM | – | 138 nM | – | –
6 | CC(C)Oc1cc(Nc2nc(N[C@@H](C)c3ccc(F)cn3)ncc2Cl)n[nH]1 [AZ-23] | – | – | – | – | – | – | – | – | > 1000 nM | 606 nM | – | – | –
7 | Cc1cc(Nc2nc(N[C@@H](C)c3ncc(F)cn3)ncc2Cl)[nH]n1 [AZD1480] | 50.5 nM | 26.1 nM | 126 nM | 20.8 nM | 23.3 nM | 78.1 nM | 331 nM | 73.1 nM | – | 80.6 nM | 197 nM | 75.5 nM | 123 nM
8 | NC(=O)Nc1cc(-c2cccc(F)c2)sc1C(=O)N[C@H]1CCCNC1 [AZD7762] | 115 nM | 29.2 nM | 131 nM | 28.8 nM | 43.2 nM | 132 nM | 353 nM | 127 nM | – | – | 145 nM | – | –
9 | N#Cc1ccc2[nH]c(O)c(-c3ccc(CN4CCOCC4)cn3)c2c1 [AZD-1080] | 3420 nM | – | > 10000 nM | – | – | – | 3180 nM | > 10000 nM | – | – | – | – | –
10 | N#CC1(c2ccc(NC(=O)c3cccnc3NCc3ccncc3)cc2)CCCC1 [Apatinib] | – | – | 1710 nM | – | > 10000 nM | – | – | – | – | > 10000 nM | – | – | –
11 | Cc1c(CN2CCN(C(=O)[C@H](C)O)CC2)sc2c(N3CCOCC3)nc(-c3cnc(N)nc3)nc12 [Apitolisib] | 204 nM | 1600 nM | 145 nM | 457 nM | 492 nM | 599 nM | – | – | – | 1320 nM | 622 nM | 902 nM | 2310 nM
12 | CC(C)c1c(C(=O)Nc2ccccc2)c(-c2ccccc2)c(-c2ccc(F)cc2)n1CC[C@@H](O)C[C@@H](O)CC(=O)O [Atorvastatin] | 2180 nM | 2380 nM | 3670 nM | 2760 nM | 332 nM | 579 nM | 1520 nM | – | – | – | 1630 nM | – | –
13 | CNC(=O)c1ccccc1Sc1ccc2c(/C=C/c3ccccn3)n[nH]c2c1 [Axitinib] | 323 nM | 916 nM | 1500 nM | 717 nM | 734 nM | 1100 nM | 2760 nM | 707 nM | – | – | 1200 nM | – | –
14 | Cc1cc2c(F)c(Oc3ncnn4cc(OC[C@@H](C)O)c(C)c34)ccc2[nH]1 [Brivanib] | – | > 1000 nM | > 1000 nM | – | > 1000 nM | – | > 1000 nM | – | – | > 1000 nM | > 1000 nM | – | > 1000 nM
15 | CC(C)(C)c1nc(-c2cccc(NS(=O)(=O)c3c(F)cccc3F)c2F)c(-c2ccnc(N)n2)s1 [Dabrafenib] | – | 72.1 nM | > 2500 nM | – | > 2500 nM | – | – | – | – | > 2500 nM | – | – | > 2500 nM
16 | Cn1c(=O)n(-c2ccc(C(C)(C)C#N)cc2)c2c3cc(-c4cnc5ccccc5c4)ccc3ncc21 [Dactolisib] | 9.68 nM | 48 nM | 15 nM | 17.3 nM | 10.4 nM | 26.1 nM | 198 nM | 40.5 nM | – | 31.8 nM | 40.9 nM | – | –
17 | CO[C@@H](C(=O)N1Cc2[nH]nc(NC(=O)c3ccc(N4CCN(C)CC4)cc3)c2C1)c1ccccc1 [Danusertib] | 175 nM | 493 nM | 337 nM | 460 nM | 1380 nM | 204 nM | 312 nM | 413 nM | – | – | – | – | –
18 | COC(=O)N[C@@H](C)CNc1nccc(-c2cn(C(C)C)nc2-c2cc(Cl)cc(NS(C)(=O)=O)c2F)n1 [Encorafenib] | – | 34.3 nM | – | – | – | – | – | – | – | > 1000 nM | – | > 1000 nM | > 1000 nM
19 | CO[C@H]1C[C@@H]2CC[C@@H](C)[C@@](O)(O2)C(=O)C(=O)N2CCCC[C@H]2C(=O)O[C@H]([C@H](C)C[C@@H]2CC[C@@H](OCCO)[C@H](OC)C2)CC(=O)[C@H](C)/C=C(\C)[C@@H](O)[C@@H](OC)C(=O)[C@H](C)C[C@H](C)/C=C/C=C/C=C/1C [Everolimus] | 0.94 nM | – | – | – | – | – | > 100 nM | – | – | – | – | – | > 100 nM
20 | O=S(=O)(c1cccc2cnccc12)N1CCCNCC1 [Fasudil] | – | – | – | 6870 nM | – | – | – | – | – | 10900 nM | 8760 nM | 8170 nM | 15900 nM
21 | CC(C)(C)NC(=O)[C@H]1CC[C@H]2[C@@H]3CC[C@H]4NC(=O)C=C[C@]4(C)[C@H]3CC[C@]12C [Finasteride] | – | – | – | – | – | – | – | > 10000 nM | – | – | – | – | –
22 | COc1cc(Nc2ncc(F)c(Nc3ccc4c(n3)N(COP(=O)(O)O)C(=O)C(C)(C)O4)n2)cc(OC)c1OC [Fostamatinib] | – | – | – | – | – | – | > 2500 nM | – | – | – | – | – | –
23 | O=C(NOCCO)c1ccc2cncn2c1Nc1ccc(I)cc1F [GDC-0623] | – | 25.6 nM | > 2500 nM | – | 22.1 nM | – | > 2500 nM | – | – | – | – | – | –
24 | Cc1cccc(-c2nn3c(c2-c2ccnc4ccc(C(N)=O)cc24)CCC3)n1 [Galunisertib] | – | – | – | – | > 1000 nM | > 1000 nM | > 1000 nM | – | – | > 1000 nM | – | – | > 1000 nM
25 | O=P1(NCCCl)OCCCN1CCCl (stereo not given) [Ifosfamide] | > 10000 nM | > 10000 nM | > 10000 nM | > 10000 nM | > 10000 nM | – | > 10000 nM | – | – | > 10000 nM | > 10000 nM | – | > 10000 nM
26 | CC(C)Cn1cnc2c(N)nc3ccccc3c21 [Imiquimod] | – | – | – | – | – | – | – | 89.6 nM | – | – | – | – | –
27 | C[C@]12O[C@H](C[C@]1(O)CO)n1c3ccccc3c3c4c(c5c6ccccc6n2c5c31)CNC4=O [Lestaurtinib] | 28.6 nM | 16 nM | 31.1 nM | 11.9 nM | 28.1 nM | 85 nM | 96.7 nM | 38.5 nM | – | 21.5 nM | 78.3 nM | 20.9 nM | 44.1 nM
